Measurements: article PMC9455983 (International Journal of Molecular Sciences, 2022)
Where “and” joins values, the source holds several entries; their conditions need not be identical. Equal values may be shown once. Read-outs that look alike come from different tables or passages of the source.

Assays:
[1] = target: T1, mu-opioid receptor (MOR) (Rattus norvegicus, UniProt P33535); experiment: MOR radioligand competition binding assay ([3H]-DAMGO); conditions: Mu screening results
T1 construct: Rat cortices were homogenized using 50 mM Tris, pH 7.4, and centrifuged at 16,500 rpm for 10 min; from tissue; host or cells: rat cortex membranes
Procedure: MOR binding assay: Rat cortices were homogenized using 50 mM Tris, pH 7.4, and centrifuged at 16,500 rpm for 10 min. The pellets were resuspended in fresh buffer and incubated at 37 °C for 30 min. Following incubation, the suspensions were centrifuged as before, the resulting pellets were resuspended in 100 volumes of 50 mM Tris, pH 7.4 plus 2 mg/mL bovine serum and the suspensions combined. Each assay tube contained 0.5 mL of membrane suspension, 2 nM [^3H]-DAMGO, and 0.02 mg/mL mixture in a total volume of 0.65 mL [13, 45, 53, 55].
(§1) All three binding assays were terminated by filtration through GF/B filters, soaked in 5 mg/mL bovine serum albumin, 50 mM Tris, pH 7.4, on a Tomtec Mach II Harvester 96. The filters were subsequently washed with 6 mL of assay buffer. Bound radioactivity was counted on a Wallac Betaplate Liquid Scintillation Counter. Experiments were conducted using two replicates and repeated twice. Values in Scheme 2 represent the mean ± SD of two experiments with two replicates in each test.

[2] = target: T2, kappa-opioid receptor (KOR) (Cavia porcellus, UniProt P41144); experiment: KOR radioligand competition binding assay ([3H]U69,593); parameters: species or system guinea pig; conditions: Kappa screening results
T2 construct: Guinea pig cortices and cerebella were homogenized using 50 mM Tris, pH 7.4; from tissue; host or cells: guinea pig cortex and cerebellum membranes
Procedure: KOR binding assay: Guinea pig cortices and cerebella were homogenized using 50 mM Tris, pH 7.4, 10 mM MgCl2-6H2O, […] centrifuged and incubated as above. Each assay tube contained 2 nM [^3H]U69,593. Assay tubes were incubated for 2 h at 25 °C. Unlabeled U50,488 was used as a competitor to generate a standard curve and determine nonspecific binding.
as §1

[3] = target: T3, delta-opioid receptor (DOR) (Rattus norvegicus, UniProt P33533); experiment: DOR radioligand competition binding assay ([3H]-DPDPE); conditions: Delta screening results
T3 construct: Rat cortices were homogenized using 50 mM Tris, pH 7.4, 10 mM MgCl2-6H2O, 200 µM PMSF; from tissue; host or cells: rat cortex membranes
Procedure: DOR binding assay: Rat cortices were homogenized using 50 mM Tris, pH 7.4, 10 mM MgCl2-6H2O, 200 µM PMSF, centrifuged and incubated as above. Each assay tube contained 2 nM [^3H]-DPDPE. Assay tubes were incubated for 2.5 h at 25 °C. Unlabeled DPDPE was used as a competitor to generate a standard curve and determine nonspecific binding.
as §1

[4] = experiment 1, unit inferred, read-out: Ki (Exp 1)
[5] = experiment 2, unit inferred, read-out: Ki (Exp 2)
[6] = mean of Exp 1 and Exp 2, unit inferred, read-out: MEAN (Ki)
[7] = mean of two experiments, read-out: Ki
[8] = first Ki column, unit not printed (apparently M), read-out: Ki (first column)
[9] = mean of both Ki, unit inferred, read-out: MEAN (Ki)
[10] = second Ki column, unit not printed (apparently M), read-out: Ki (second column)

Row | SMILES | Ki [1, 4] | Ki [1, 5] | Ki [1, 6] | Ki [1, 7] | Ki [2, 4] | Ki [2, 5] | Ki [2, 6] | Ki [2, 7] | Ki [3, 8] | Ki [3, 9] | Ki [3, 7] | Ki [3, 10]
1 | N=C1NC[C@H](Cc2ccccc2)N1C[C@H](Cc1ccccc1)N1C[C@H](Cc2ccc(O)cc2)NC1=N [1968-2] | 0.135 µM | 0.142 µM | 0.139 µM | 0.139 µM | 5.36 µM | 5.57 µM | 5.46 µM | 5.46 µM | 6.92 µM | 8.1 µM | 8.1 µM | 9.28 µM
2 | CC(C)C[C@H]1CN([C@@H](Cc2ccccc2)CN2C(=N)NC[C@@H]2Cc2ccccc2)C(=N)N1 [1968-3] | 2.56 µM | 2.63 µM | 2.59 µM | 2.59 µM | 4.51 µM | 4.84 µM | 4.67 µM | 4.67 µM | 6.37 µM | 6.66 µM | 6.66 µM | 6.95 µM
3 | N=C1NC[C@H](Cc2ccccc2)N1C[C@H](Cc1ccc(O)cc1)N1C[C@H](Cc2ccccc2)NC1=N [1968-5] | 0.925 µM | 0.671 µM | 0.798 µM | 0.798 µM | 3.95 µM | 3.73 µM | 3.84 µM | 3.84 µM | 6.4 µM | 9.23 µM | 9.23 µM | 12.1 µM
4 | N=C1NC[C@H](Cc2ccccc2)N1C[C@H](Cc1ccc(O)cc1)N1C[C@H](Cc2ccc(O)cc2)NC1=N [1968-6] | 0.0845 µM | 0.0672 µM | 0.0758 µM | 0.076 µM | 5.35 µM | 3.43 µM | 4.39 µM | 4.39 µM | 4.88 µM | 4.98 µM | 4.98 µM | 5.09 µM
5 | CC(C)C[C@@H](CN1C(=N)NC[C@@H]1Cc1ccccc1)N1C[C@H](Cc2ccccc2)NC1=N [1968-9] | 0.848 µM | 0.955 µM | 0.901 µM | 0.901 µM | 11.4 µM | 10.9 µM | 11.1 µM | 11.1 µM | 9.83 µM | 7.82 µM | 7.82 µM | 5.81 µM
6 | CC(C)C[C@@H](CN1C(=N)NC[C@@H]1Cc1ccccc1)N1C[C@H](Cc2ccc(O)cc2)NC1=N [1968-10] | 0.199 µM | 0.281 µM | 0.24 µM | 0.24 µM | 5.47 µM | 4.84 µM | 5.16 µM | 5.16 µM | 2.23 µM | 2.21 µM | 2.21 µM | 2.19 µM
7 | CC(C)C[C@H]1CN([C@@H](CC(C)C)CN2C(=N)NC[C@@H]2Cc2ccccc2)C(=N)N1 [1968-11] | 2.98 µM | 3.04 µM | 3.01 µM | 3.01 µM | 13.9 µM | 8.93 µM | 11.4 µM | 11.4 µM | 26.4 µM | 58.6 µM | 58.6 µM | 90.9 µM
8 | Cc1cc(O)cc(C)c1C[C@H]1CN([C@@H](CC(C)C)CN2C(=N)NC[C@@H]2Cc2ccccc2)C(=N)N1 [1968-12] | 0.0674 µM | 0.0659 µM | 0.0666 µM | 0.067 µM | 1.03 µM | 1.29 µM | 1.16 µM | 1.16 µM | 1.95 µM | 1.85 µM | 1.85 µM | 1.75 µM
9 | Cc1cc(O)cc(C)c1C[C@@H](CN1C(=N)NC[C@@H]1Cc1ccccc1)N1C[C@H](CC(C)C)NC1=N [1968-15] | 0.35 µM | 0.26 µM | 0.305 µM | 0.305 µM | 0.568 µM | 0.504 µM | 0.536 µM | 0.536 µM | 1.07 µM | 1.25 µM | 1.25 µM | 1.44 µM
10 | N=C1NC[C@H](Cc2ccc(O)cc2)N1C[C@H](Cc1ccccc1)N1C[C@H](Cc2ccccc2)NC1=N [1968-17] | 1.07 µM | 0.741 µM | 0.907 µM | 0.907 µM | 6.27 µM | 6.84 µM | 6.55 µM | 6.55 µM | 7.93 µM | 7.1 µM | 7.1 µM | 6.27 µM
11 | N=C1NC[C@H](Cc2ccc(O)cc2)N1C[C@H](Cc1ccccc1)N1C[C@H](Cc2ccc(O)cc2)NC1=N [1968-18] | 0.403 µM | 0.401 µM | 0.402 µM | 0.402 µM | 3.47 µM | 3.63 µM | 3.55 µM | 3.55 µM | 7.57 µM | 8.08 µM | 8.08 µM | 8.58 µM
12 | Cc1cc(O)cc(C)c1C[C@@H](CN1C(=N)NC[C@@H]1C)N1C[C@H](CC(C)C)NC1=N [1968-19] | 0.0159 µM | 0.0142 µM | 0.015 µM | 0.015 µM | 0.0893 µM | 0.0438 µM | 0.0665 µM | 0.0665 µM and 0.066 µM | 1.18 µM | 1.09 µM | 1.1 µM | 1.01 µM
13 | CC(C)C[C@H]1CN([C@@H](Cc2ccc(O)cc2)CN2C(=N)NC[C@@H]2Cc2ccc(O)cc2)C(=N)N1 [1968-23] | 2.35 µM | 2.27 µM | 2.31 µM | 2.31 µM | 9.52 µM | 7.36 µM | 8.44 µM | 8.44 µM | – | – | – | –
14 | CC(C)C[C@H]1CN([C@@H](CC(C)C)CN2C(=N)NC[C@@H]2Cc2ccc(O)cc2)C(=N)N1 [1968-27] | 0.96 µM | 1 µM | 0.981 µM | 0.981 µM | 4.24 µM | 4.84 µM | 4.54 µM | 4.54 µM | – | – | – | –
15 | CC(C)C[C@H]1CN([C@@H](Cc2ccccc2)CN2C(=N)NC[C@@H]2C)C(=N)N1 [1968-35] | 4.45 µM | 4.58 µM | 4.51 µM | 4.51 µM | 34.1 µM | 52.6 µM | 43.3 µM | 43.3 µM | – | – | – | –
